Laboratory results: paper PMC12730863 (Biomedicines, 2025)

What was measured:
[1] = tested on: HCT-8/V cells; assay: Cytotoxicity assay (MTT, 72 h); type: cell-based, human; details: for IC50 / Fold Resistance: chemotherapeutic drug alone; for Fold Resistance: relative to IC50 of HCT-8 without inhibitors
Method: All cell lines were grown in Dulbecco’s modified Eagle’s medium supplemented with 10% CellMax fetal bovine serum (#SA301.02.V) from Lanzhou Minhai Bio-Engineering Co. (Lanzhou, China) and maintained in a humidified incubator at 37 °C with 5% CO2.
(§1) Cells were seeded into 96-well plates at a concentration of 5 × 10^3 cells per well. Following cell attachment, the respective agents were added for a 72-h incubation period. Upon treatment completion, 500 μg/mL MTTwas added and the plates were incubated for 4 h. Subsequently, the supernatant was carefully aspirated, and 50 μL DMSO was added. Absorbance at 570 nm was measured via BioTek Synergy H1 plate reader (Agilent Technologies, Santa Clara, CA, USA). IC50 values were calculated with GraphPad Prism 8.0.

[2] = tested on: HCT-8 cells; assay: Cytotoxicity assay (MTT, 72 h); type: cell-based, human; details: for IC50 / Fold Resistance: HCT-8, chemotherapeutic drug alone; for Fold Resistance: relative to IC50 of HCT-8 without inhibitors
Method: as §1

[3] = tested on: HCT-8/V cells; assay: Drug accumulation assay (flow cytometry); type: cell-based, human
Method: (§2) Fluorescence imaging was performed using an Olympus CKX53 microscope (Tokyo, Japan) to assess the intracellular accumulation of the substrate drugs. Subsequently, cells were harvested, and fluorescent quantitative analysis was conducted using a Beckman CytoFLEX flow cytometer. The data were processed via FlowJo v10.8 software.

[4] = tested on: HCT-8 cells; assay: Drug accumulation assay (flow cytometry); type: cell-based, human; details: HCT-8 parental cells
Method: as §2

[5] = target: T1, ABCB1 (Homo sapiens, UniProt P08183); assay: ABCB1 ATPase activity assay; type: biochemical; details: 5 mM Mg2+-ATP, 37 °C, 40 min, luminescence; read-out: IC50 of inhibition of the ATPase activity of ABCB1
T1 construct: purchased Promega Corporation V3601
Method: The detection was performed using anABCB1 ATPase Activity Assay Kit (#V3601, Promega Corporation, Madison, WI, USA). […] Subsequently, 5 mM Mg^2+-ATP was introduced to initiate the ATPase activity reaction. […] Finally, the emitted light was measured with a multi-functional microplate reader manufactured by Gene Company Limited (Chai Wan, Hong Kong).

[6] = tested on: ABCB1; assay: Western blot of ABCB1 expression in HCT-8/V cells; type: cell-based, human; details: 10 μM and 30 μM H89 for 0.5, 3 and 72 h
Method: Cells were placed in pre-cooled lysis buffer (containing 0.1% sodium dodecyl sulfate, 0.5% sodium deoxycholate, 1% Nonidet P-40, 10 ng/mL phenylmethanesulfonyl fluoride and 0.03% aprotinin) and lysed on ice for 30 min. After centrifugation (14,000× g, 10 min), the clear supernatant was collected. Proteins were separated by 10% sodium dodecyl sulfatepolyacrylamidegel electrophoresis and subsequently transferred to polyvinylidene difluoride membranes. The membranes were blocked with 5% BSA at room temperature for 1 h, followed by sequential incubation with primary antibodies specific to the target protein and horseradish peroxidase-conjugated secondary antibodies. Ultimately, signal detection was conducted via chemiluminescence using a gel imaging system from Bio-Rad Laboratories.

T1 sequence (P08183 whole entry): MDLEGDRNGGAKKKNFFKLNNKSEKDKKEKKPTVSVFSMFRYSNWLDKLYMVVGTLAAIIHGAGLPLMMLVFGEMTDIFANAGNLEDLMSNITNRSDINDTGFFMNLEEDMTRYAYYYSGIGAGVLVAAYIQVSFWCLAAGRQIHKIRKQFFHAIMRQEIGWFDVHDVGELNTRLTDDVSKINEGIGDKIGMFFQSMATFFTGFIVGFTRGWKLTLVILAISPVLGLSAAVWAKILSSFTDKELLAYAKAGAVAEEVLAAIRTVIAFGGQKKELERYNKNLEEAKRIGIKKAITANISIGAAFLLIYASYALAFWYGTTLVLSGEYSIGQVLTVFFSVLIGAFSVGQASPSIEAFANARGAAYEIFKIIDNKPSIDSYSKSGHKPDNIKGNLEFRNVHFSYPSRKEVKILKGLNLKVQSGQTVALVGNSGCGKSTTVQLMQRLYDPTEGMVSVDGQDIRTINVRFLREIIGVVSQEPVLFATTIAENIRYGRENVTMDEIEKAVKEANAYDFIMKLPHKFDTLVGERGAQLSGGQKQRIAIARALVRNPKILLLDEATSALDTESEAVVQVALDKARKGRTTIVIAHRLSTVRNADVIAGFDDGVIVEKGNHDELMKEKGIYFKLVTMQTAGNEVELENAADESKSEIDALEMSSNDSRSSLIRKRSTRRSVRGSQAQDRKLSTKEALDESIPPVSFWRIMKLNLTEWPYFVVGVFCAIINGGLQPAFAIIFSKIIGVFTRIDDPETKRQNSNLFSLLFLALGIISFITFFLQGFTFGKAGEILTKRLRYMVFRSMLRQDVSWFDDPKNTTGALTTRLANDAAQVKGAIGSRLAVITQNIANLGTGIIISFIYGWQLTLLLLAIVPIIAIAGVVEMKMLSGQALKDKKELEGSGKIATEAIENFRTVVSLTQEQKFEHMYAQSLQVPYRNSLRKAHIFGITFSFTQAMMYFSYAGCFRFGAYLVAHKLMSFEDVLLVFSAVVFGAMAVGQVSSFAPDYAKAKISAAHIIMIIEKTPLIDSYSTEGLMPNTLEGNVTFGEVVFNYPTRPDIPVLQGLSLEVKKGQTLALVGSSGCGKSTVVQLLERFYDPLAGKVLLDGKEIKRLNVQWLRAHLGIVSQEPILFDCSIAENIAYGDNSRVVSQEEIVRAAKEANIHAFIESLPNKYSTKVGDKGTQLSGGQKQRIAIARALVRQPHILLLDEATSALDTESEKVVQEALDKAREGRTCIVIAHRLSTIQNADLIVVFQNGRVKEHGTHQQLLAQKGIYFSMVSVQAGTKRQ

Q: With CC[C@]1(O)C[C@H]2CN(CCc3c([nH]c4ccccc34)[C@@](C(=O)OC)(c3cc4c(cc3OC)N(C=O)[C@H]3[C@@](O)(C(=O)OC)[C@H](OC(C)=O)[C@]5(CC)C=CCN6CC[C@]43[C@@H]65)C2)C1 [Vincristine, vincristine] as the molecule, how does the IC50 ([1]; Homo sapiens, 72 h MTT) read?
A: > 30 µM

Q: And the IC50 ([2]; Homo sapiens, 72 h MTT)?
A: 0.025 ± 0.002 µM

Q: What does the source list for COc1cccc2c1C(=O)c1c(O)c3c(c(O)c1C2=O)C[C@@](O)(C(=O)CO)C[C@@H]3O[C@H]1C[C@H](N)[C@H](O)[C@H](C)O1 [Doxorubicin, doxorubicin]?
A: IC50 ([1]; Homo sapiens, 72 h MTT): 6.98 ± 0.444 µM; Fold Resistance [1]: 19.94 fold; Fold Resistance [2]: 1.0 fold; IC50 ([2]; Homo sapiens, 72 h MTT): 0.35 ± 0.081 µM

Q: For O=C1[O][Pt]2([NH][C@@H]3CCCC[C@H]3[NH]2)[O]C1=O [Oxaliplatin, oxaliplatin], which IC50 ([1]; 72 h MTT) is on record?
A: 10.1 ± 0.09 µM

Q: And the “Fold Resistance” value [1]?
A: 1.08 fold

Q: And the IC50 ([2]; 72 h MTT)?
A: 9.3 ± 0.549 µM

Q: What about the “Fold Resistance” value [2] of the same molecule?
A: 1.0 fold

Q: How did the “Fold Resistance to Doxorubicin in combination” value (“Fold Resistance to Doxorubicin” for short) ([1]; Doxorubicin + 3 μM of the labelled inhibitor) turn out when O=S(=O)(NCCNCC=Cc1ccc(Br)cc1)c1cccc2cnccc12 [H89, N-[2-(p-bromocinnamylamino)ethyl]-5-isoquinolinesulfonamide] was run?
A: 4.53 fold

Q: And the “Fold Resistance to Doxorubicin” value ([1]; Doxorubicin + 10 μM of the labelled inhibitor)?
A: 1.85 fold

Q: And the “Fold Resistance to Oxaliplatin in combination” value (“Fold Resistance to Oxaliplatin” for short) ([1]; Oxaliplatin + 3 μM of the labelled inhibitor)?
A: 0.89 fold

Q: What about the “Fold Resistance to Oxaliplatin” value ([1]; Oxaliplatin + 10 μM of the labelled inhibitor) of the same molecule?
A: 0.79 fold

Q: And the “Fold Resistance to Vincristine in combination” value (“Fold Resistance to Vincristine” for short) ([1]; Vincristine + 3 μM of the labelled inhibitor)?
A: 5.60 fold

Q: And the “Fold Resistance to Vincristine” value ([1]; Vincristine + 10 μM of the labelled inhibitor)?
A: 1.88 fold

Q: And the “Cytotoxicity of H89 alone” value ([1]; at concentrations below 30 μM, 72 h MTT)?
A: low cytotoxicity

Q: And the “Fold Resistance to Doxorubicin” value ([2]; HCT-8, Doxorubicin + 3 μM of the labelled inhibitor)?
A: 1.06 fold

Q: What about the “Fold Resistance to Doxorubicin” value ([2]; HCT-8, Doxorubicin + 10 μM of the labelled inhibitor) of the same molecule?
A: 1.05 fold

Q: What about the “Fold Resistance to Oxaliplatin” value ([2]; HCT-8, Oxaliplatin + 3 μM of the labelled inhibitor) of the same molecule?
A: 0.96 fold

Q: And the “Fold Resistance to Oxaliplatin” value ([2]; HCT-8, Oxaliplatin + 10 μM of the labelled inhibitor)?
A: 0.91 fold

Q: What about the “Fold Resistance to Vincristine” value ([2]; HCT-8, Vincristine + 3 μM of the labelled inhibitor) of the same molecule?
A: 0.96 fold

Q: What about the “Fold Resistance to Vincristine” value ([2]; HCT-8, Vincristine + 10 μM of the labelled inhibitor) of the same molecule?
A: 0.88 fold

Q: And the “Cytotoxicity of H89 alone” value ([2]; HCT-8, at concentrations below 30 μM, 72 h MTT)?
A: low cytotoxicity

Q: And the “Intracellular accumulation of substrate drugs compared with verapamil” value ([3]; 10 μM H89 vs 10 μM verapamil)?
A: achieved or even exceeded the inhibitory effect of verapamil

Q: And the “Intracellular rhodamine 123 levels” value ([3]; 30 μM H89)?
A: comparable to that in HCT-8 cells

Q: And the “Intracellular accumulation of doxorubicin and rhodamine 123” value ([3]; 1 h pretreatment, then 10 μM doxorubicin or rhodamine 123 for 2 h)?
A: elevated doxorubicin and rhodamine 123 levels in HCT-8/V cells dose-dependently

Q: And the “Intracellular accumulation of doxorubicin and rhodamine 123” value [4]?
A: not observed

Q: What about the IC50 [5] of the same molecule?
A: 0.246 µM

Q: What about the “ABCB1 protein level relative to β-tubulin” value [6] of the same molecule?
A: did not alter ABCB1 protein level
